For data set [1], the system named is cMYC in NCI-H82. The experiment in a line: Western blot analysis of cMYC protein level in NCI-H82 cells. It counts as cell-based. Conditions: for NCI-H82 cMYC, relative protein level: 1.0 μM of compound, mean ± SD, triplicate. How it is done: (§1) Cancer cells were treated with each of the compounds at different compound concentrations. […] Each lysate was separated by sodium dodecyl sulfate polyacrylamide gel electrophoresis (SDS-PAGE), transferred to polyvinylidene fluoride (PVDF, Millipore, USA) membrane, and blotted with antibodies. […] After the blotting (0.2% casein, 1% BSA, or 5% nonfat milk), membranes were washed with blotting buffer (0.2% casein in 1× PBS or 1× TBST), and corresponding alkaline phosphatase (AP)- or horseradish peroxidase (HRP)-conjugated secondary antibodies (Sigma-Aldrich) were added. The blots were developed by chemiluminescence (PerkinElmer, USA).
In general terms: In western blotting, separated proteins are transferred to a membrane and probed.

Data set [2] can be described thus: Body weight of xenograft mice during treatment. It counts as in vivo. Conditions: IV 50 mg/kg, 5-on-2-off, during the treatment. The protocol:
(§2) Male athymic nu/nu nude mice (BioLASCO, Taiwan) 6 weeks old were housed in sterile cages maintained under 12 h light/dark cycles with controlled temperature and humidity. Mice were inoculated subcutaneously with 1 × 10^6 NCI–H446 cells (ATCC@ HTB-171) resuspended in saline mixed with 50% Matrigel matrix (Corning, USA). The sizes of the xenografted tumors were measured by a digital caliper (GMC-190; Goldsun Electronics Co.) and calculated using the formula: tumor volume (mm^3) = length × (width)2/2. Body weight and tumor size were measured at least twice a week. When the xenograft tumor reached ≥200 mm^3 in size, mice were intravenous or orally administered with the vehicle (5% dimethylacetamide/95% PEG400) or the compounds on a 5-on-2-off dosing regimen for 2–4 weeks. Tumor growth was analyzed for a statistically significant difference using ANOVA, followed by the Student–Newman–Keuls test. P < 0.05 was considered a significant difference between groups.

The test system of data set [3] is NCI-H2171. The experiment in a line: Cell proliferation inhibition assay (PrestoBlue). It counts as cell-based. The settings on record: Homo sapiens, NCI-H2171, 72 h; read-out: Compound 13 IC50 (half-proliferation inhibition concentration). The text has this:
(§3) SCLC is an aggressive malignancy that accounts for around 10–15% of all lung cancers, for which no targeted therapy is currently available.[29],[30] SCLC cells are characterized by rapid proliferation, universal RB1 and TP53 inactivation, and high rates of MYC-family amplification.[31] A recent study of MYC amplification in 77 formalin-fixed paraffin-embedded SCLC tumor samples using chromogenic in situ hybridization identified amplification of the MYC-family oncogenes in 20% of the tumors.[32],[33] Thus, we evaluated the growth-inhibitory effects of 13 on nine different SCLC cell lines: five with cMYC amplification, one with MYCN amplification, one with MYCL amplification, and two with no MYC-family amplification.
(§4) The efficacy of the compounds as inhibitors of cancer cell proliferation was assessed using PrestoBlue Cell Viability Reagent (ThermoFisher Scientific, USA). Cells were seeded at a density of 5000–10,000 cells per well in 96-well plates. After 24 h, cells were treated with each compound at various concentrations (0–10 μM). IC50 values were computed based on a triplicate, eight-point titration. After 72 h of drug treatment, 10 μL of PrestoBlue Cell Viability Reagent was added to each well, and fluorescence signals were collected using a Wallac Vector 1420 multilabel counter (PerkinElmer, USA).

In data set [4] the test system is NCI-H446. The experiment in a line: Cell proliferation inhibition assay (PrestoBlue). It counts as cell-based. Conditions: Homo sapiens, NCI-H446, 72 h; read-out: Compound 13 IC50 (half-proliferation inhibition concentration).
Excerpt: as §3, §4

In data set [5] the test system is NCI-H146. The experiment in a line: Cell proliferation inhibition assay (PrestoBlue). The settings on record: NCI-H146 (MYC-unamplified), read-out: Compound 13 IC50 (half-proliferation inhibition concentration). It counts as cell-based.
Excerpt: as §3, §4

Data set [6] concerns NCI-H82. The experiment in a line: Cell proliferation inhibition assay (PrestoBlue). It counts as cell-based. Conditions: Homo sapiens, NCI-H82, 72 h; read-out: Compound 13 IC50 (half-proliferation inhibition concentration).
Excerpt: as §3, §4

Data set [7] has as its system NCI-H524. The experiment in a line: Cell proliferation inhibition assay (PrestoBlue). It counts as cell-based. The settings on record: Homo sapiens, NCI-H524, 72 h; read-out: Compound 13 IC50 (half-proliferation inhibition concentration).
Excerpt: as §3, §4

Data set [8] concerns NCI-H211. The experiment in a line: Cell proliferation inhibition assay (PrestoBlue). It counts as cell-based. Conditions: Homo sapiens, NCI-H211, 72 h; read-out: Compound 13 IC50 (half-proliferation inhibition concentration).
Excerpt: as §3, §4

Data set [9] addresses T1, human Aurora A (amino acids 123–401) (Homo sapiens, UniProt O14965).
T1 construct: N-terminal truncated human Aurora A (amino acids 123–401); GST; made in house; host or cells: Sf9 insect cells
T1 sequence (O14965 123-401): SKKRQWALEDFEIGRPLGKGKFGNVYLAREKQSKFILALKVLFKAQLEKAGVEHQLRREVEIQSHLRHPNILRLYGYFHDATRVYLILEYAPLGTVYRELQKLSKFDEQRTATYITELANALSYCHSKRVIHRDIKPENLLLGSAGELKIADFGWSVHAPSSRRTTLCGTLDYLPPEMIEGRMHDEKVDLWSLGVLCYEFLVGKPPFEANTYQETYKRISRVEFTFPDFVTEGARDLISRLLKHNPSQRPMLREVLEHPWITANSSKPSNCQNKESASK
The experiment in a line: In vitro inhibition of Aurora A kinase activity (Kinase-Glo Plus Luminescent Kinase assay, ATP consumption). Conditions: mean of 2–3 independent determinations ± SD; >100 = inhibition < 50% at 100 nM. It counts as biochemical. How it is done:
The inhibitory potency of the newly synthesized small molecules against Aurora A was first measured in ATP consumption assays using purified Aurora A protein.
The efficacy of the compounds as inhibitors of Aurora A kinase was assessed in vitro using the Kinase-Glo Plus Luminescent Kinase assay (Promega, USA), as described previously.[45] […] The resulting mixture was incubated at 25 °C for 20 min. A 70 μL aliquot of the mixture was transferred to a black microtiter plate.
A general note: In Kinase-Glo more light means more ATP remaining.

Data set [10] has as its system NCI-H446 xenograft tumors. The experiment in a line: In vivo xenograft tumor growth inhibition. Details: species or system mice. The settings on record: IV 50 mg/kg, 5-on-2-off dosing schedule, two weeks, nude mice. How it is done: as §2
Data set [11] relates to MYCN in SK-N-BE(2). The experiment in a line: Western blot analysis of MYCN protein level in SK-N-BE(2) cells. It counts as cell-based. Conditions: for SK-N-BE(2) MYCN, relative protein level: 1.0 μM of compound, mean ± SD, triplicate. How it is done:
as §1

Data set [12] has as its system high-MYC expressing small-cell lung cancer (SCLC) cell lines. The experiment in a line: Cell proliferation inhibition assay, cell lines not named singly. It counts as cell-based. The settings on record: high-MYC expressing / cMYC-amplified SCLC cell lines, 72 h.
Excerpt: as §3, §4

Read-outs that look alike come from different tables or passages of the source.

Take `CCN1CCN(c2cc(Nc3cc(C)[nH]n3)nc(N[C@H]3CCN(C(=O)c4ccc(Cl)cc4F)C3)n2)CC1` [Compound 13, (S)-(4-Chloro-2-fluorophenyl) (3-((4-(4-ethylpiperazin-1-yl)-6-((5-methyl-1H-pyrazol-3-yl)amino)pyrimidin-2-yl)amino)pyrrolidin-1-yl)methanone]: in data set [1] (1.0 μM), the “reduction of cMYC level” value was > 50%. Besides, the “NCI-H82 cMYC, relative protein level” value in data set [1] (24 h) was determined as 0.475 ± 0.023. Also, in data set [1] (various concentrations, 24 h), the “effect on cMYC protein level in NCI-H82” value is “dose-dependent loss”. Also, in data set [2], the body weight change result is “less than 5%”. For the same compound, the IC50 in data set [3] is 27.1 nM; in data set [4], 120 nM; in data set [5] (Homo sapiens, NCI-H146, 72 h) it was 1180 nM; in data set [5] (72 h), > 1000 nM; in data set [6], 51.7 nM; in [7], 3.36 nM. Moreover, the IC50 was 105 nM in data set [8], 38.6 ± 7 nM in data set [9] and < 200 nM in [12]. Also, the tumor growth inhibition in data set [10] is > 90%. Also, in data set [11] (1.0 μM), the “reduction of MYCN level” value is recorded as > 50%. For the same compound, the “SK-N-BE(2) MYCN, relative protein level” value in [11] (24 h) is reported as 0.487 ± 0.066. In data set [11] (various concentrations, 24 h), the “effect on MYCN protein level in SK-N-BE(2)” value is reported as “dose-dependent loss”.

As to `CCN1CCN(c2cc(Nc3cc(C)[nH]n3)nc(N[C@H]3CCN(C(=O)c4cc(F)c(Cl)cc4F)C3)n2)CC1` [Compound 16, (S)-(4-Chloro-2,5-difluorophenyl) (3-((4-(4-ethylpiperazin-1-yl)-6-((5-methyl-1H-pyrazol-3-yl)amino)pyrimidin-2-yl)amino)pyrrolidin-1-yl)methanone], the “NCI-H82 cMYC, relative protein level” value in [1] (24 h) is listed as 0.834 ± 0.121. In data set [9], the IC50 is 50.9 ± 2.3 nM. The “SK-N-BE(2) MYCN, relative protein level” value in [11] (24 h) is given as 0.792 ± 0.170.

For the compound `CCN1CCN(c2cc(Nc3cc(C)[nH]n3)nc(N[C@H]3CCN(C(=O)c4ccc(Cl)c(F)c4F)C3)n2)CC1` [Compound 17, (S)-(4-Chloro-2,3-difluorophenyl) (3-((4-(4-ethylpiperazin-1-yl)-6-((5-methyl-1H-pyrazol-3-yl)amino)pyrimidin-2-yl)amino)pyrrolidin-1-yl)methanone], the “NCI-H82 cMYC, relative protein level” value in [1] (24 h) is 0.744 ± 0.124. In [9], the IC50 came to 64.9 ± 13.7 nM. For the same compound, the “SK-N-BE(2) MYCN, relative protein level” value in data set [11] (24 h) turned out to be 0.541 ± 0.068.

The record behind these values is paper PMC8279414, “Discovery and Synthesis of a Pyrimidine-Based Aurora Kinase Inhibitor to Reduce Levels of MYC Oncoproteins” (Journal of Medicinal Chemistry, 2021).
